Common to all, as to format: binding
One assay concerns the target T1, Q8NEG5 (Homo sapiens, UniProt Q8NEG5).
T1 construct: endogenous in cells; whole-cell lysate
T1 sequence (Q8NEG5 1-633): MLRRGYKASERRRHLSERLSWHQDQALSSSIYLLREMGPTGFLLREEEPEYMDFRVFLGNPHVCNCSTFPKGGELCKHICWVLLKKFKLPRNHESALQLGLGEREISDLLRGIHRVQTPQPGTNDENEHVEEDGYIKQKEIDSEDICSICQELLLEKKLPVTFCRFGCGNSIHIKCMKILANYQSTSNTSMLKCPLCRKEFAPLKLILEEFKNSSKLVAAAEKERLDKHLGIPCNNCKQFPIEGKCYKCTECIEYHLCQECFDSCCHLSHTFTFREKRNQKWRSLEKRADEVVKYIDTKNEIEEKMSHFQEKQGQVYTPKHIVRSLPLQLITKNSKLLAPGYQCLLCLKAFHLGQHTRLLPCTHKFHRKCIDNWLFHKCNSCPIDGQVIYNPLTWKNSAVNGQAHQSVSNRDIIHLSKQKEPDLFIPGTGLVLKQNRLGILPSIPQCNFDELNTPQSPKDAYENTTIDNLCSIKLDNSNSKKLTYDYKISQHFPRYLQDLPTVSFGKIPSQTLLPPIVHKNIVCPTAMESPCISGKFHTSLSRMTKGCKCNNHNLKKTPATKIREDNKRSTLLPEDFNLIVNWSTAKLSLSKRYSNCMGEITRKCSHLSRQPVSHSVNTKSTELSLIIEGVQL
In words: Cysteine liganding, probe competition (Table 2B). An excerpt:
(§1) The following 96-well sample prep protocol was used for sample preparation.

For the next assay, the target named is T2, P60006 (Homo sapiens, UniProt P60006).
T2 construct: Cells were resuspended in cold PBS on ice and sonicated with a probe sonicator to achieve lysis; endogenous in cells
In words: Competitive cysteine profiling, probe competition (Table 2B).
Description: as §1

The target of another assay is T3, Q5XKL5 (Homo sapiens, UniProt Q5XKL5).
T3 construct: 200 μL of lysate containing 5 mg/ml proteome was treated with 2 μL of 100× compound stock; endogenous in cells
Described as above.
Description: as §1

The target in another assay is T4, Q92624 (Homo sapiens, UniProt Q92624).
T4 construct: Cells were resuspended in cold PBS on ice and sonicated with a probe sonicator to achieve lysis; endogenous in cells
T4 sequence (Q92624 1-585): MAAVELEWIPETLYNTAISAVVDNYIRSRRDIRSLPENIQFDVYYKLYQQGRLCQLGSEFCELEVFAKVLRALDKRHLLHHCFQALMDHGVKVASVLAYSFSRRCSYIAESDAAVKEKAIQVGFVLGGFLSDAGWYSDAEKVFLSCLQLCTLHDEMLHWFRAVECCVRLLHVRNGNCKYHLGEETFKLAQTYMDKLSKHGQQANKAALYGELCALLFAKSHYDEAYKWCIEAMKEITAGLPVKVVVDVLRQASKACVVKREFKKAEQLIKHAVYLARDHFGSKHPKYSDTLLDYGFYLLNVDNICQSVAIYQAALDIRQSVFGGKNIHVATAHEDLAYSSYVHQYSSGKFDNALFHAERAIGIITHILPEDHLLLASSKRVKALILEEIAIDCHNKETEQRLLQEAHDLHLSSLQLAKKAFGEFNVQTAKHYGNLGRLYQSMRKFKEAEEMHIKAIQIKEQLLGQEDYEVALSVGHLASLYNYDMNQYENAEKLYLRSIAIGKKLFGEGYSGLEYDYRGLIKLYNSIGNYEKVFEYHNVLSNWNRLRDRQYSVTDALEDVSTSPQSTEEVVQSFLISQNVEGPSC
The description is as above.
Description: as §1

Another assay has as its target T5, Q96DX5 (Homo sapiens, UniProt Q96DX5).
T5 construct: 200 μL of lysate containing 5 mg/ml proteome was treated with 2 μL of 100× compound stock; endogenous in cells
T5 sequence (Q96DX5 1-294): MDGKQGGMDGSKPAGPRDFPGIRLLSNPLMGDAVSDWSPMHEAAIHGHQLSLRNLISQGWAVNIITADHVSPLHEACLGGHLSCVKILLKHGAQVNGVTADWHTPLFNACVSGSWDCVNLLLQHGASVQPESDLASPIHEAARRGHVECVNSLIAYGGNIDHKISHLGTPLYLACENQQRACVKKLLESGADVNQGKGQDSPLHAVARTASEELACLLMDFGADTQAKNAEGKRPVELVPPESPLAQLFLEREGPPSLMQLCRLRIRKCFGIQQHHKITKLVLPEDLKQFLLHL
Described as above.
Description: as §1

A further assay concerns the target T6, Q96P09 (Homo sapiens, UniProt Q96P09).
T6 construct: 200 μL of lysate containing 5 mg/ml proteome was treated with 2 μL of 100× compound stock; endogenous in cells
T6 sequence (Q96P09 1-236): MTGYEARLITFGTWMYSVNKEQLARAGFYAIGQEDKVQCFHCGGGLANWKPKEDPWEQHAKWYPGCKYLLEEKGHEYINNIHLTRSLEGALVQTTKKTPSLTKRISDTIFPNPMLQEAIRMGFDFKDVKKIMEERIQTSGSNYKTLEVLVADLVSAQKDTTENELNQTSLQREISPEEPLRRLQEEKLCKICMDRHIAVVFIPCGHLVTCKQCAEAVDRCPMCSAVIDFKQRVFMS
The assay is described as above.
Description: as §1

The target in a further assay is T7, Q9NYG5 (Homo sapiens, UniProt Q9NYG5).
T7 construct: Cells were resuspended in cold PBS on ice and sonicated with a probe sonicator to achieve lysis; endogenous in cells
The assay is described as above.
Description: as §1

Setting [1] is: read-out: KB02_500 uM_percent_inhibition.
The mark [2] stands for this setting: 100 uM, read-out: KB02_100 uM_percent_inhibition.
Setting [3] is: 500 uM, read-out: KB02_500 uM_percent_inhibition.
[4] abbreviates: read-out: KB02_100 uM_percent_inhibition.
[5] abbreviates: read-out: KB05_500 uM_percent_inhibition.
Setting [6] is: 100 uM, read-out: KB05_100 uM_percent_inhibition.
The mark [7] stands for this setting: 500 uM, read-out: KB05_500 uM_percent_inhibition.
The mark [8] stands for this setting: read-out: KB05_100 uM_percent_inhibition.

Here are results for three compounds from patent US20200239530A1, “COMPOUNDS AND METHODS OF MODULATING PROTEIN DEGRADATION” (Vividion Therapeutics, Inc., priority 2017, published 2020).

Where two headings read alike, the source gives them in different places.

T7 sequence (Q9NYG5 whole entry): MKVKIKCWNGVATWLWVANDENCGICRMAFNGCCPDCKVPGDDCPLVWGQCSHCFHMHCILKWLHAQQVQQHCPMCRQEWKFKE
T3 sequence (Q5XKL5 whole entry): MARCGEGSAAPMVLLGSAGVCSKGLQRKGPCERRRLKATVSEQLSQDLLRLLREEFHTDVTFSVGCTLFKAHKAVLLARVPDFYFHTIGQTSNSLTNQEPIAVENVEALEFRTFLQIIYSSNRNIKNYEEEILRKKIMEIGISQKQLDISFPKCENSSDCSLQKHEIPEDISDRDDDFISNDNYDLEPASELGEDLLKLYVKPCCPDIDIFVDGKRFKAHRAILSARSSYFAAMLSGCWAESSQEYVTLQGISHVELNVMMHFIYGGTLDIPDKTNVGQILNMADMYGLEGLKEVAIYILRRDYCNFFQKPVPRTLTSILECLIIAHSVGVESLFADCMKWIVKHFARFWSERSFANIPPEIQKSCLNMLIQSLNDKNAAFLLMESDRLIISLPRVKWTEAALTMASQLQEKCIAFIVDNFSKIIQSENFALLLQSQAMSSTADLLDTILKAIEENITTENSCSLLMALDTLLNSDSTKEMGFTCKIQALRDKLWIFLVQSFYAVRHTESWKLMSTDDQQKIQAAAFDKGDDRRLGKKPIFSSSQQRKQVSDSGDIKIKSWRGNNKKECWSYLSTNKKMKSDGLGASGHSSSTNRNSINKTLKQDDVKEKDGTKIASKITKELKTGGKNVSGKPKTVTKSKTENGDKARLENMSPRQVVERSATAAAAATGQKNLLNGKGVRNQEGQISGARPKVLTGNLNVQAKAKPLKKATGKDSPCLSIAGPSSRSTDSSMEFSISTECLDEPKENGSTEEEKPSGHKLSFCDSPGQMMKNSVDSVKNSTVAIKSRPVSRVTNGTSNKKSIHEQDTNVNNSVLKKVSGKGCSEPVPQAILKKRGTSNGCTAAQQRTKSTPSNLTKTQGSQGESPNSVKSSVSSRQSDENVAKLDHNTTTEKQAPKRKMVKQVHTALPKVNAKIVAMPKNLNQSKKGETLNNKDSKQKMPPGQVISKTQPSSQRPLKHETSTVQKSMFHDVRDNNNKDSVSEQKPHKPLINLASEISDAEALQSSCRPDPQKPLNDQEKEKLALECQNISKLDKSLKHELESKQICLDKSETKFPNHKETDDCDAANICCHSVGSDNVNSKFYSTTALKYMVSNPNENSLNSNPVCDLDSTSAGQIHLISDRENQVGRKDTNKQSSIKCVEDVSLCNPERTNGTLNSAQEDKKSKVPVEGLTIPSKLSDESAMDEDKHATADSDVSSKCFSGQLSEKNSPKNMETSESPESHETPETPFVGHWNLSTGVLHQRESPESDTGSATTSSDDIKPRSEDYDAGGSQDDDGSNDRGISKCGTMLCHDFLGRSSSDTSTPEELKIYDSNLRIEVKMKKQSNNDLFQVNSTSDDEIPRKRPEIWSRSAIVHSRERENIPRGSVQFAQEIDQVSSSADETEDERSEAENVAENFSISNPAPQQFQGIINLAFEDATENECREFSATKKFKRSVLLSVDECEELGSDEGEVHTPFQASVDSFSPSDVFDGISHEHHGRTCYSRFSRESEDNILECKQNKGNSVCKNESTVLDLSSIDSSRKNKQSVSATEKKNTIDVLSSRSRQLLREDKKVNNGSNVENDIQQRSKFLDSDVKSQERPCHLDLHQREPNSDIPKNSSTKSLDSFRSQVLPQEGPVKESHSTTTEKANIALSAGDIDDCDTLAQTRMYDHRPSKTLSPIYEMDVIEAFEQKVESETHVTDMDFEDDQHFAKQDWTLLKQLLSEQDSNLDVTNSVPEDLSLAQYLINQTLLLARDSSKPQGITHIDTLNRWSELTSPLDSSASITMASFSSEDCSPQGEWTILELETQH

Regarding `COc1ccc2c(c1)CCCN2C(=O)CCl` [KB02], the inhibition at 500 µM was found to be 35% at Q8NEG5 (setting [1]), 93% on P60006 (setting [3]), 100% on Q92624 (setting [3]) and 38% at Q96P09 (setting [1]). Moreover, the inhibition at 100 µM worked out at 44% at P60006 (setting [2]), 27% on Q5XKL5 (setting [2]), 30% at Q96DX5 (setting [4]) and 41% at Q9NYG5 (setting [4]).
With `C=CC(=O)N(c1ccccc1)c1ccc(Br)cc1` [KB05], the inhibition at 500 µM at Q8NEG5 (setting [5]) amounted to 16%; on P60006 (setting [7]) it was 74%; at Q5XKL5 (setting [7]) it was 37%; at Q96P09 (setting [5]) it was 45%. The inhibition at 100 µM at P60006 (setting [6]) worked out at 24%; on Q92624 (setting [6]), 34%; on Q96DX5 (setting [8]), 12%; at Q9NYG5 (setting [8]), 27%. For the same compound, at Q5XKL5 (500 uM), the “KB05_500 uM_percent_inhibition” value is 55%.
As for `O=C(CCl)Nc1cc(C(F)(F)F)cc(C(F)(F)F)c1` [KBO3], the “KB03_500 uM_percent_inhibition” value at Q8NEG5 (500 uM) turned out to be 8%; on P60006 (500 uM) it was 65%; on Q5XKL5 (500 uM) it was 18%; at Q96P09 (500 uM), 21%. Moreover, the “KB03_100 uM_percent_inhibition” value on P60006 (100 uM) is reported as 49%; on Q92624 (100 uM), 56%; on Q96DX5 (100 uM), 33%; on Q9NYG5 (100 uM), 51%.
